# Patent US3980707A, “Methylamino derivative of 2-ethylindandione-1,3 and the hydrochloride thereof” (priority 1973, dated 1976)
# Where a name gives a salt, the structure may show the parent alone.
# Key:
# [1] = Solubility and hydrolysis in water; type: physicochemical; details: hydrochlorides
# [2] = Anticonvulsive activity and toxicity, general statements; type: in vivo; details: compared with the conventional anticonvulsants
# electroshock = assay: Thirty-day electroshock tests (habituation); type: in vivo; details: white mice
# [3] = system: seizures induced by an electroshock; assay: Anticonvulsive effect in electroshock (intraperitoneal); type: in vivo, white rats and white mice
# Procedure: Anticonvulsive effect of Metindione in electroshock was studied on white rats and white mice on a comparison basis with the well known drug phenobarbital. Both preparations were administered by intraperitoneal injections. The results are summarized in Tabl. 1 (confidence limits are indicated in parentheses; P = 0.05).
# [4] = Extended every day administration / chronic toxicity; type: in vivo
# conditioned reflexes = assay: Influence on rate of development of conditioned reflexes (learning); type: in vivo, white mice; details: for ET50 (medium time required for learning): confidence limits in parentheses, P=0.05
# From the text: The influence of Metindione and Phenobarbital on learning has been studied on white mice.
# (confidence limits are put in parentheses; P=0.05).
# [5] = Acute toxicity (LD50, Table 1); set-up: species or system white rats and white mice; details: in vivo, ip; confidence limits in parentheses, P = 0.05; second ED50 column of Table 1
structure (smiles),measurement,setting,value
"CCC1(Nc2ccccc2)C(=O)c2ccccc2C1=O [2-aniline-2-ethylindandione-1,3 hydrochloride]",hydrolysis in water,[1],readily hydrolyzed in water
"CCC1(NC)C(=O)c2ccccc2C1=O [2-methylamino-2-ethylindandione-1,3 hydrochloride]",anticonvulsant index,[2],high anticonvulsant index
"CCC1(NC)C(=O)c2ccccc2C1=O [Metindione, 2-methylamino-2-ethylindandione-1,3 hydrochloride]",necessity to increase initial dose / habit forming reaction,electroshock,no necessity to increase the initial dose
same,ED50,"[3]; Rattus norvegicus, ip, electroshock, confidence limits in parentheses, P = 0.05",3.6 mg/kg
same,Protective Index (in ratio of LD50 /ED50),"[3]; electroshock, i.p., confidence limits in parentheses, P = 0.05",115 (89+149)
same,protective index higher than that of phenobarbital,[3]; in vivo,14 times
same,anticonvulsive effect stronger than that of phenobarbital,"[3]; seizures induced by an electroshock, relative to phenobarbital",~4 times
same,toxic effect,"[4]; extended every day administration, doses 15 times higher than the therapeutical average",no toxic effect
same,acute and chronic toxicity,[4]; in vivo,low acute and a low chronic toxicity
same,morphological internal organic changes,[4]; in vivo,does not cause any morphological internal organic changes
same,influence on normal development and growth of young animals,[4]; young animals,no adverse influence on normal development and growth of young animals
same,ET50 (medium time required for learning),conditioned reflexes; dose 1/2 of ED50 of anticonv. action,2.4(2.1+2.6) day
same,ET50 (medium time required for learning),conditioned reflexes; dose 1 x ED50 of anticonv. action,2.5(2.1+2.8) day
same,ET50 (medium time required for learning),conditioned reflexes; dose 2 x ED50 of anticonv. action,2.0(1.7+2.3) day
same,ET50 (medium time required for learning),conditioned reflexes; dose 4 x ED50 of anticonv. action,2.8(2.4+3.4) day
same,influence on rate of developing conditioned reflexes,"conditioned reflexes; mouse, in vivo",did not influence the rate of developing conditioned reflexes
same,LD50,[5],415 mg/kg
